# What was measured:
# Assay type in all cases: cell-based
# [1] = tested on: colistin resistant MCR (−) E. Coli strains; assay: Synergy study: colistin MIC in the presence of compound
# Summary of the method: (§1)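 After 24 hours, MIC was read as the lowest concentration without visible growth. Drugs were tested singly and in combination by CLSI broth microdilution, equal-amount colistin:LC compound mixtures serially diluted 2-fold at a fixed synergy concentration.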
# [2] = tested on: colistin resistant MCR (−) E. Cloacae strain 7023456439; assay: as above; conditions: strain 7023456439 E. Cloacae
# Summary of the method: as §1
# [3] = tested on: colistin resistant MCR (+) E. Coli strains; assay: as above
# Summary of the method: as §1
# [4] = tested on: colistin resistant MCR (−) E. Coli strains; assay: MIC, broth microdilution, compound alone
# Summary of the method: (§2)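 Wells held ~5×10^5 CFU/mL of bacteria prepared to 0.5 McFarland from overnight TSA colonies and exposed to serially diluted agents, following modified CLSI microdilution. After 24 h at 35 °C, growth judged by turbidity (OD600 possible); 99% inhibition sets the MIC.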
# [5] = tested on: colistin resistant MCR (−) E. Cloacae strain 7023456439; assay: MIC, broth microdilution, compound alone; conditions: strain 7023456439 E. Cloacae
# Summary of the method: as §2
# [6] = tested on: colistin resistant MCR (+) E. Coli strains; assay: MIC, broth microdilution, compound alone; conditions: compound alone
# Summary of the method: as §2
# [7] = strain 6083672926, MCR(−), compound at 5 μg (Table 2a: 5 ug/ml)
# [8] = strain 6083672926, MCR(−), compound at 10 μg (Table 2a: 10 ug/ml)
# [9] = strain 7023446108, MCR(−), compound at 5 μg (Table 2a: 5 ug/ml)
# [10] = strain 7023446108, MCR(−), compound at 10 μg (Table 2a: 10 ug/ml)
# [11] = strain 7033607097, MCR(−), compound at 5 μg (Table 2a: 5 ug/ml)
# [12] = strain 7033607097, MCR(−), compound at 10 μg (Table 2a: 10 ug/ml)
# [13] = compound at 5 μg (Table 2a: 5 ug/ml)
# [14] = compound at 10 μg (Table 2a: 10 ug/ml)
# [15] = strain 6083655967, MCR(+), compound at 10 μg (Table 2a: 10 ug/ml)
# [16] = strain 7023444207, MCR(+), compound at 10 μg (Table 2a: 10 ug/ml)
# [17] = strain 7028444207 (Table 1b), MCR (+)
# [18] = strain 6075066346, MCR(+), compound at 10 μg (Table 2a: 10 ug/ml)
# [19] = strain 6103645107, MCR(+), compound at 10 μg (Table 2a: 10 ug/ml)
# [20] = strain 6123520276, MCR(+), compound at 10 μg (Table 2a: 10 ug/ml)
# [21] = strain 7013177695, MCR(+), compound at 10 μg (Table 2a: 10 ug/ml)
# [22] = strain 7023436560, MCR(+), compound at 10 μg (Table 2a: 10 ug/ml)
# [23] = strain 6083672926, MCR(−), compound at 2 μg
# [24] = strain 7023446108, MCR(−), compound at 2 μg
# [25] = strain 7033607097, MCR(−), compound at 2 μg
# [26] = strain 6075066346, MCR(+), compound at 2 μg
# [27] = strain 6083655967, MCR(+), compound at 2 μg
# [28] = strain 6103645107, MCR(+), compound at 2 μg
# [29] = strain 6123520276, MCR(+), compound at 2 μg
# [30] = strain 7013177695, MCR(+), compound at 2 μg
# [31] = strain 7023436560, MCR(+), compound at 2 μg
# [32] = strain 7023444207, MCR(+), compound at 2 μg
SMILES,"Colistin MIC in the presence of the compound [1, 8]","Colistin MIC in the presence of the compound [1, 10]","Colistin MIC in the presence of the compound [1, 12]","Colistin MIC in the presence of the compound [2, 14]","Colistin MIC in the presence of the compound [3, 15]","Colistin MIC in the presence of the compound [3, 16]","MIC ([4]; strain 6083672926, MCR (−))","MIC ([4]; strain 7023446108, MCR (−))","MIC ([4]; strain 7033607097, MCR (−))",MIC [5],"MIC ([6]; strain 6075066346, MCR (+))","MIC ([6]; strain 6083655967, MCR (+))","MIC ([6]; strain 6103645107, MCR (+))","MIC ([6]; strain 6123520276, MCR (+))","MIC ([6]; strain 7013177695, MCR (+))","MIC ([6]; strain 7023436560, MCR (+))","MIC [6, 17]","Colistin MIC in the presence of the compound [1, 23]","Colistin MIC in the presence of the compound [1, 24]","MIC ([6]; strain 7023444207, MCR (+))",other results
O=C(C=Cc1ccc(OCCCCN2CCNCCNCCNCC2)cc1)c1ccc(OCCCCN2CCNCCNCCNCC2)cc1O.[Cl][Zn][Cl].[Cl][Zn][Cl] [LC304],12.5 µg/mL,3.125 µg/mL,3.125 µg/mL,>12.5 µg/mL,1.56 µg/mL,1.56 µg/mL,>50 µg/mL,>50 µg/mL,>50 µg/mL,>50 µg/mL,>50 µg/mL,>50 µg/mL,>50 µg/mL,>50 µg/mL,>50 µg/mL,>50 µg/mL,>50 µg/mL,,,,"Colistin MIC in the presence of the compound [1, 7]: 12.5 µg/mL; Colistin MIC in the presence of the compound [1, 9]: 3.125 µg/mL; Colistin MIC in the presence of the compound [1, 11]: 3.125 µg/mL; Colistin MIC in the presence of the compound [2, 13]: >12.5 µg/mL"
Cc1cc(OCCCCC[N+](C)(C)C)cc(OCCCCC[N+](C)(C)C)c1 [LC310],6.25 µg/mL,6.25 µg/mL,6.25 µg/mL,6.25 µg/mL,6.25 µg/mL,6.25 µg/mL,>50 µg/mL,>50 µg/mL,>50 µg/mL,>50 µg/mL,>50 µg/mL,>50 µg/mL,>50 µg/mL,>50 µg/mL,>50 µg/mL,>50 µg/mL,>50 µg/mL,,,,"Colistin MIC in the presence of the compound [3, 18]: 6.25 µg/mL; Colistin MIC in the presence of the compound [3, 19]: 6.25 µg/mL; Colistin MIC in the presence of the compound [3, 20]: 6.25 µg/mL; Colistin MIC in the presence of the compound [3, 21]: 6.25 µg/mL; Colistin MIC in the presence of the compound [3, 22]: 6.25 µg/mL"
CC(C)=CCc1c(OCCCCC[N+](C)(C)C)ccc(C(=O)/C=C/c2ccc(OCCCCC[N+](C)(C)C)cc2)c1O [LC311],,,,,,,3.125 µg/mL,3.125 µg/mL,6.25 µg/mL,6.25 µg/mL,3.125 µg/mL,3.125 µg/mL,3.125 µg/mL,6.25 µg/mL,6.25 µg/mL,3.125 µg/mL,3.125 µg/mL,0.39 µg/mL,0.78 µg/mL,,"Colistin MIC in the presence of the compound [1, 25]: 0.195 µg/mL; Colistin MIC in the presence of the compound ([2]; compound at 2 μg): >12.5 µg/mL; Colistin MIC in the presence of the compound [3, 26]: 0.78 µg/mL; Colistin MIC in the presence of the compound [3, 27]: 0.39 µg/mL; Colistin MIC in the presence of the compound [3, 28]: 0.39 µg/mL; Colistin MIC in the presence of the compound [3, 29]: 0.39 µg/mL; Colistin MIC in the presence of the compound [3, 30]: 0.78 µg/mL; Colistin MIC in the presence of the compound [3, 31]: 0.39 µg/mL; Colistin MIC in the presence of the compound [3, 32]: 0.39 µg/mL"
CC1(C)C=Cc2c(ccc3c2OCC(c2ccc(OCCCCC[N+](C)(C)C)cc2OCCCCC[N+](C)(C)C)C3)O1 (stereo not drawn) [LC316],,,,,,,>50 µg/mL,50 µg/mL,>50 µg/mL,>50 µg/mL,50 µg/mL,50 µg/mL,50 µg/mL,50 µg/mL,50 µg/mL,50 µg/mL,,,,50 µg/mL,"Colistin MIC in the presence of the compound [1, 7]: 6.25 µg/mL; Colistin MIC in the presence of the compound [1, 9]: 1.56 µg/mL; Colistin MIC in the presence of the compound [1, 11]: 1.56 µg/mL; Colistin MIC in the presence of the compound [2, 13]: >12.5 µg/mL; Colistin MIC in the presence of the compound ([3]; strain 6075066346, MCR(+), compound at 5 μg (Table 2a: 5 ug/ml)): 1.55 µg/mL"
CC(C)=CCc1c(OCCCC[n+]2ccn(C)c2)ccc(C(=O)/C=C/c2ccc(OCCCC[n+]3ccn(C)c3)cc2)c1O [LC350],,,,,,,3.125 µg/mL,3.125 µg/mL,3.125 µg/mL,>50 µg/mL,3.125 µg/mL,3.125 µg/mL,3.125 µg/mL,3.125 µg/mL,3.125 µg/mL,3.125 µg/mL,,0.195 µg/mL,0.195 µg/mL,3.125 µg/mL,"Colistin MIC in the presence of the compound [1, 25]: 0.195 µg/mL; Colistin MIC in the presence of the compound ([2]; compound at 2 μg): >12.5 µg/mL; Colistin MIC in the presence of the compound [3, 26]: 0.195 µg/mL; Colistin MIC in the presence of the compound [3, 27]: 0.195 µg/mL; Colistin MIC in the presence of the compound [3, 28]: 0.195 µg/mL; Colistin MIC in the presence of the compound [3, 29]: 0.195 µg/mL; Colistin MIC in the presence of the compound [3, 30]: 0.195 µg/mL; Colistin MIC in the presence of the compound [3, 31]: 0.195 µg/mL; Colistin MIC in the presence of the compound [3, 32]: 0.195 µg/mL"
CC(C)=CCc1c(OCCCC[n+]2ccccc2)ccc(C(=O)/C=C/c2ccc(OCCCC[n+]3ccccc3)cc2)c1O [LC365],,,,,,,3.125 µg/mL,3.125 µg/mL,3.125 µg/mL,>50 µg/mL,3.125 µg/mL,3.125 µg/mL,3.125 µg/mL,3.125 µg/mL,3.125 µg/mL,3.125 µg/mL,,0.195 µg/mL,0.195 µg/mL,3.125 µg/mL,"Colistin MIC in the presence of the compound [1, 25]: 0.195 µg/mL; Colistin MIC in the presence of the compound ([2]; compound at 2 μg): >12.5 µg/mL; Colistin MIC in the presence of the compound [3, 27]: 0.39 µg/mL; Colistin MIC in the presence of the compound [3, 28]: 0.39 µg/mL; Colistin MIC in the presence of the compound [3, 29]: 0.39 µg/mL; Colistin MIC in the presence of the compound [3, 32]: 0.39 µg/mL"
CC1(C)C=Cc2c(ccc3c2OCC(c2ccc(OCCCC[n+]4ccccc4)cc2OCCCC[n+]2ccccc2)C3)O1 (stereo not drawn) [LC370],>12.5 µg/mL,0.195 µg/mL,0.195 µg/mL,>12.5 µg/mL,0.39 µg/mL,0.195 µg/mL,25 µg/mL,25 µg/mL,25 µg/mL,>50 µg/mL,50 µg/mL,50 µg/mL,50 µg/mL,50 µg/mL,50 µg/mL,50 µg/mL,,,,50 µg/mL,"Colistin MIC in the presence of the compound [3, 18]: 0.195 µg/mL; Colistin MIC in the presence of the compound [3, 19]: 0.195 µg/mL; Colistin MIC in the presence of the compound [3, 20]: 0.195 µg/mL; Colistin MIC in the presence of the compound [3, 21]: 0.195 µg/mL; Colistin MIC in the presence of the compound [3, 22]: 0.195 µg/mL"

# Source: patent US12473250B2, “Molecular design of new antibiotics and antibiotic adjuvants against MCR strains” (priority 2019, dated 2025)
